From ChEMBL document CHEMBL4304811, “Development of a Water-Soluble Indolylmaleimide Derivative IM-93 Showing Dual Inhibition of Ferroptosis and NETosis” (ACS Med Chem Lett, 2019)

Key:
[1] = target: cAMP-dependent protein kinase catalytic subunit beta (Homo sapiens) (UniProt P22694); assay: Binding affinity to wild-type human full length PKAC-beta (M1 to F351 residues) expressed in bacterial expression system assessed as residual binding level at 10 uM by Kinomescan method relative to control
[2] = target: Tyrosine-protein kinase Tec (Homo sapiens) (UniProt P42680); assay: Binding affinity to wild-type human partial length TEC (L341 to D620 residues) expressed in bacterial expression system assessed as residual binding level at 10 uM by Kinomescan method relative to control
Chain of Tyrosine-protein kinase Tec (Homo sapiens) (P42680 whole entry, the tested form may be a part): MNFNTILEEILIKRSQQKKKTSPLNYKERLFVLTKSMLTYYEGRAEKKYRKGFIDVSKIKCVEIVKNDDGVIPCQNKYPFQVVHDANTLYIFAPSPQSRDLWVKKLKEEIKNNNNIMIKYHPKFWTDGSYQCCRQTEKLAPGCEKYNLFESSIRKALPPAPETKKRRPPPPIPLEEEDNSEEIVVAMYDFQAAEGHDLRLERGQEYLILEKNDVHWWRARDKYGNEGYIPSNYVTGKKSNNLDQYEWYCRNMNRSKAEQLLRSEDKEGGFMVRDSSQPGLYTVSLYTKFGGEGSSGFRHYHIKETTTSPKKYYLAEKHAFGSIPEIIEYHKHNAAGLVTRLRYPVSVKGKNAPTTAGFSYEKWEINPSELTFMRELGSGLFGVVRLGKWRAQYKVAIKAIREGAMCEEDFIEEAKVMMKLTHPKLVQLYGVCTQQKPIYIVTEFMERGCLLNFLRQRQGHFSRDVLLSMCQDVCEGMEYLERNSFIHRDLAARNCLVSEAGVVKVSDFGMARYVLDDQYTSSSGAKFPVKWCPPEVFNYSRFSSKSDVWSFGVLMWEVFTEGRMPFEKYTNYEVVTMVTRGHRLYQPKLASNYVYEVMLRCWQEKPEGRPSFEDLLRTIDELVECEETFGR

[3] = target: Serine/threonine-protein kinase/endoribonuclease IRE1 (Homo sapiens) (UniProt O75460); assay: Binding affinity to wild-type human partial length ERN1 (S551 to E852 residues) expressed in mammalian expression system assessed as residual binding level at 10 uM by Kinomescan method relative to control
[4] = target: Phosphatidylinositol 4,5-bisphosphate 3-kinase catalytic subunit delta isoform (Homo sapiens) (UniProt O00329); assay: Binding affinity to wild-type human partial length PIK3CD (R108 to Q1044 residues) expressed in mammalian expression system assessed as residual binding level at 10 uM by Kinomescan method relative to control
Chain of Phosphatidylinositol 4,5-bisphosphate 3-kinase catalytic subunit delta isoform (Homo sapiens) (O00329 whole entry, the tested form may be a part, canonical isoform): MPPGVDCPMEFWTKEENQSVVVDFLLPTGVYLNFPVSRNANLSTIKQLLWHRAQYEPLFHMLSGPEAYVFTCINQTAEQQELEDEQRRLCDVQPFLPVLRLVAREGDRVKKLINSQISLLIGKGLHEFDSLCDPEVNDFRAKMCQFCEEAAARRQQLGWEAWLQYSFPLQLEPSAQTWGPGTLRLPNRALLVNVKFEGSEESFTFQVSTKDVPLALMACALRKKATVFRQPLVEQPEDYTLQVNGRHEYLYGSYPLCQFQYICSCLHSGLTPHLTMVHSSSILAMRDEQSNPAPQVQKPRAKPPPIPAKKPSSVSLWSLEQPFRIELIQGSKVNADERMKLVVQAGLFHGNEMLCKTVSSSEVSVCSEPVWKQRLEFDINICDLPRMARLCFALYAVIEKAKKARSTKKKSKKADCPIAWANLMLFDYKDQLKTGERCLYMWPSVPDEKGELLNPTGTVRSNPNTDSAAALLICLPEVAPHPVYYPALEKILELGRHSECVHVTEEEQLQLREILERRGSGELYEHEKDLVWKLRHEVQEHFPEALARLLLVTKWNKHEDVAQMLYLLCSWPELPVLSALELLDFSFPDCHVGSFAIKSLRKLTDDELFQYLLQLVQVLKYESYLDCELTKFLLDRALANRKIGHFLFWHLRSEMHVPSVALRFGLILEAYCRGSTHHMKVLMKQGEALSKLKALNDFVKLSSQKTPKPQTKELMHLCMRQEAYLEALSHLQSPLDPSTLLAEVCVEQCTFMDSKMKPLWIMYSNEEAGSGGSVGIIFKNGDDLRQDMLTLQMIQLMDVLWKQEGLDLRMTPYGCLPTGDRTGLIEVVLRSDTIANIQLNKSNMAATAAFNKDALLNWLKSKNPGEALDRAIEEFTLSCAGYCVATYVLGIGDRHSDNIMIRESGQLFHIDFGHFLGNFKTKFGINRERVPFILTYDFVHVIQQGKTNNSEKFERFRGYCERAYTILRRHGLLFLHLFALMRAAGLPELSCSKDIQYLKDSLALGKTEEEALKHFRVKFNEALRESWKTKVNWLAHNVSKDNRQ

[5] = target: ALK tyrosine kinase receptor (Homo sapiens) (UniProt Q9UM73); assay: Binding affinity to wild-type human partial length ALK (I1088 to E1409 residues) expressed in mammalian expression system assessed as residual binding level at 10 uM by Kinomescan method relative to control
Chain of ALK tyrosine kinase receptor (Homo sapiens) (Q9UM73 19-1620 limits assumed): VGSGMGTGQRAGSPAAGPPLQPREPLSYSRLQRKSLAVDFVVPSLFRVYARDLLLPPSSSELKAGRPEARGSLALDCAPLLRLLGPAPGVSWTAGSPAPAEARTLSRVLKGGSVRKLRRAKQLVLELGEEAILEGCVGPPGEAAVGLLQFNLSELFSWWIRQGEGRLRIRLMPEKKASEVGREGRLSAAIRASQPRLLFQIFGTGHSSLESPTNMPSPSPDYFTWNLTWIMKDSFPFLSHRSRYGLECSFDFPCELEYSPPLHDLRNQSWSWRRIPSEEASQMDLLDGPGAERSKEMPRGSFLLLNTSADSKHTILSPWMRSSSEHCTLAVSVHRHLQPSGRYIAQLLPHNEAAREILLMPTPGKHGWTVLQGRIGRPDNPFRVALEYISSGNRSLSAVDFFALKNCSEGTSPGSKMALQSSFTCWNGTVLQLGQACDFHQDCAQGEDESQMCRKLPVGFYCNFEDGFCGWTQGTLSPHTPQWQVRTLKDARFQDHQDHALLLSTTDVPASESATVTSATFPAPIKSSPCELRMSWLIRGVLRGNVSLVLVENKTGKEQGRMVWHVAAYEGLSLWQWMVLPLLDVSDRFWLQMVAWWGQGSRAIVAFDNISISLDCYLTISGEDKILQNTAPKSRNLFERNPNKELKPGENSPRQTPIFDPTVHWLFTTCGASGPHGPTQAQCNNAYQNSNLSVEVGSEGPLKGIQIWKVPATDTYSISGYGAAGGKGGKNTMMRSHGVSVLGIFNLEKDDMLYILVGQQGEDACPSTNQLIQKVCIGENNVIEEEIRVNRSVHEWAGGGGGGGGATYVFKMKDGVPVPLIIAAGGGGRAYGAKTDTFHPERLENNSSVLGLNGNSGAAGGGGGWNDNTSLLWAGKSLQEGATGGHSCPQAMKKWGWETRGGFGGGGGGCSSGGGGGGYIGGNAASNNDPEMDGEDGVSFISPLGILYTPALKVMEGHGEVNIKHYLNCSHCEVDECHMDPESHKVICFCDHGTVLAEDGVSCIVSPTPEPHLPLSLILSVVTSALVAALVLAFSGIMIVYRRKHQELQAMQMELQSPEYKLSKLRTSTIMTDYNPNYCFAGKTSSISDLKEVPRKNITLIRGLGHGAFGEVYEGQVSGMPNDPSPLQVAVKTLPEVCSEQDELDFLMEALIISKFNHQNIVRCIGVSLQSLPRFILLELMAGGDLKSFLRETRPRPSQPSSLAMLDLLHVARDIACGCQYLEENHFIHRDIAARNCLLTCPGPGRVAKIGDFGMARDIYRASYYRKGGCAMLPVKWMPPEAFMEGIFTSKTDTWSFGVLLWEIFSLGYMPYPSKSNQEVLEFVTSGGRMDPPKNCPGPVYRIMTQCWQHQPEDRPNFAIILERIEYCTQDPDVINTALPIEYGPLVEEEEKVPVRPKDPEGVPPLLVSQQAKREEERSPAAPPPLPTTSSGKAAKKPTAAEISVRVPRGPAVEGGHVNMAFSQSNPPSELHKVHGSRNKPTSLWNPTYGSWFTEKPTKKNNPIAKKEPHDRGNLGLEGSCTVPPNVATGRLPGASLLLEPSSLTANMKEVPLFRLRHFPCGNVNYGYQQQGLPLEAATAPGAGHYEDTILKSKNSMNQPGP

[6] = target: Serine/threonine-protein kinase Nek5 (Homo sapiens) (UniProt Q6P3R8); assay: Binding affinity to wild-type human partial length NEK5 (M1 to M279 residues) expressed in bacterial expression system assessed as residual binding level at 10 uM by Kinomescan method relative to control
Chain of Serine/threonine-protein kinase Nek5 (Homo sapiens) (Q6P3R8 whole entry, the tested form may be a part): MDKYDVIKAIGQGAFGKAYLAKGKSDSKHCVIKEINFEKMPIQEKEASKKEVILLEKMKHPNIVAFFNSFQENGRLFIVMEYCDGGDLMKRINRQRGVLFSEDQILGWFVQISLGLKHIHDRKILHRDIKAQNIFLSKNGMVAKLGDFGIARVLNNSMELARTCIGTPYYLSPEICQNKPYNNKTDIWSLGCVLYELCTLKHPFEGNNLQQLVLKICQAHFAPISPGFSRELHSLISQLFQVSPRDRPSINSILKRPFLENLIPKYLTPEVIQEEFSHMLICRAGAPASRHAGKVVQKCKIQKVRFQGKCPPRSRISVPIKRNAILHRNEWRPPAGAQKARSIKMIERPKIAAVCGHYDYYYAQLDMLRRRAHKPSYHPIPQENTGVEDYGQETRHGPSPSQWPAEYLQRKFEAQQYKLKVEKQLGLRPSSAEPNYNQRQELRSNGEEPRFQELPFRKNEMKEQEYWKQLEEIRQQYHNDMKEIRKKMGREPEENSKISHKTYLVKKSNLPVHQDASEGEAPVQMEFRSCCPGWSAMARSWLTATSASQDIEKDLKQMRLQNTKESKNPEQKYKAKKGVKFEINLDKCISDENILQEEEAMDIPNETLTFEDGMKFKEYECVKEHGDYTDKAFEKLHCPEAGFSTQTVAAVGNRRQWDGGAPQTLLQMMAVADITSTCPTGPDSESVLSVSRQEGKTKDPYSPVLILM

[7] = target: Activin receptor type-2A (Homo sapiens) (UniProt P27037); assay: Binding affinity to wild-type human ACVR2A (V171 to T499 residues) expressed in bacterial expression system assessed as residual binding level at 10 uM by Kinomescan method relative to control
Chain of Activin receptor type-2A (Homo sapiens) (P27037 whole entry, the tested form may be a part): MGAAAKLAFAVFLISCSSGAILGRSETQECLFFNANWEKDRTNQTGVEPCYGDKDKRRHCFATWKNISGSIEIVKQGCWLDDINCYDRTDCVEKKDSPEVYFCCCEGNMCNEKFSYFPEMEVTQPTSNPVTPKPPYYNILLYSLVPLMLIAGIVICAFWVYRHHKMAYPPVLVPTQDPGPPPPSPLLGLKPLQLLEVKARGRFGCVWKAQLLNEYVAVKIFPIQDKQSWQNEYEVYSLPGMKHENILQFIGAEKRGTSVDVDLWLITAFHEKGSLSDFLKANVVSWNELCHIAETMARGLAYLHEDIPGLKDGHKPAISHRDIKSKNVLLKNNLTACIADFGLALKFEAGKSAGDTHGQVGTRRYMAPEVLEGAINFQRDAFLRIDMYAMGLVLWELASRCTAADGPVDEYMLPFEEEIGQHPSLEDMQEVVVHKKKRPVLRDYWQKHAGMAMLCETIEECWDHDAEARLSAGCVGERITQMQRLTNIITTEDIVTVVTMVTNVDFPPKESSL

[8] = target: Calcium/calmodulin-dependent protein kinase type 1G (Homo sapiens) (UniProt Q96NX5); assay: Binding affinity to wild-type human partial length CAMK1G (M1 to A342 residues) expressed in bacterial expression system assessed as residual binding level at 10 uM by Kinomescan method relative to control
Chain of Calcium/calmodulin-dependent protein kinase type 1G (Homo sapiens) (Q96NX5 whole entry, the tested form may be a part): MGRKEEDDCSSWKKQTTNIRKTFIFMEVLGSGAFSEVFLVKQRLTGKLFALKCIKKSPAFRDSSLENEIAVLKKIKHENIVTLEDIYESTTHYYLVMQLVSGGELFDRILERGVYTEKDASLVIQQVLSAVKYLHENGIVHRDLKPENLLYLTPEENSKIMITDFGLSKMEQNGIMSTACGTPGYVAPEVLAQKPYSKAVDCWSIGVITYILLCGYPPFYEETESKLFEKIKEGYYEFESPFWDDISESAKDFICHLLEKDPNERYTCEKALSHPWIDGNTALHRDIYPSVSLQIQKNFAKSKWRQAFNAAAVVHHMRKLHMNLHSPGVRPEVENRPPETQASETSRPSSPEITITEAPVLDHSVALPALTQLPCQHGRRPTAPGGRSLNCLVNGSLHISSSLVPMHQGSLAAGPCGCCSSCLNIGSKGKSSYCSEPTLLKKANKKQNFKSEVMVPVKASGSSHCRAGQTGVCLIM

**Q.** Which Activity [1] does the source give for `CC(C)N1C(=O)C(NCCCN(C)C)=C(c2cn(C)c3ccccc23)C1=O.Cl` here?
**A.** 98%

**Q.** What about the Activity [2] of the same compound?
**A.** 99%

**Q.** And the Activity [3]?
**A.** 85%

**Q.** And the Activity [4]?
**A.** 78%

**Q.** What about the Activity [5] of the same compound?
**A.** 100%

**Q.** What about the Activity [6] of the same compound?
**A.** 100%

**Q.** What about the Activity [7] of the same compound?
**A.** 100%

**Q.** What about the Activity [8] of the same compound?
**A.** 95%
